The text below walks through data of PubChem BioAssay AID179 (DTP/NCI, 2004).

In this experiment the test system is CEM cells HIV-1 protection, formazan growth assay. The experiment can be described thus: NCI AIDS Antiviral Assay. The following applies: for IC50: measured here: growth of uninfected CEM cells. The method in brief:
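Steps: treat uninfected and HIV-1-infected human CEM cells at five drug levels; quantify growth by soluble formazan; retest any compound reaching 50% protection; classify actives from the retest.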

SMILES strings stand for the structures. Active and inactive are the calls of the source.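 The calls were made as follows: active = compounds giving half or more protection of infected cells from virus-caused growth loss, again on retest; inactive = the rest.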

Regarding `CC(=O)[O-].CC(=O)[O-].[Mn+2].c1ccc(/C(=N\Nc2ccccn2)c2ccccn2)cc1`, the result was inactive.

Turning to `N=c1n(CC(=O)NC23CC4CC(CC(C4)C2)C3)c2ccccc2n1Cc1ccccc1`, the EC50 is more than 79.4 µM and the IC50 was found to be 14.1 µM.

On to `S=c1[nH][nH]c(=S)c2c1[nH]c(=S)n2Cc1ccccc1`, for which the EC50 was 41.7 µM and the IC50 came to 43.7 µM.

Turning to `Nc1nc(Cl)cc(OCC2(CO)CC2)n1`, the EC50 is more than 200 µM and the IC50 is more than 200 µM.

Turning to `CC(C)(C)C1CCC2c3c([nH]c4ccccc34)C3C(=O)N(c4ccc(C(=O)O)cc4)C(=O)C3C2C1` (stereo not given), the EC50 was more than 200 µM and the IC50 was found to be 14.5 µM.

As for `[N-]=[N+]=NC1OC(=O)C(Cl)=C1N=P(c1ccccc1)(c1ccccc1)c1ccccc1` (stereo not given), the EC50 was more than 69.2 µM and the IC50 was found to be 7.94 µM.

With `COC(=O)c1oc([N+](=O)[O-])c(Cl)c1Cl`, the EC50 was more than 151 µM and the IC50 came out at 0.776 µM.

With `CC[C@](O)(C(=O)O)c1cc2n(c(=O)c1CO)Cc1cc3ccccc3nc1-2`, the EC50 is more than 0.1 µM and the IC50 was determined as 0.012 µM.

As to `CCOC(=O)/C(C#N)=C/c1ccc2c(-c3c(OCC)ccc4cc(/C=C(\C#N)C(=O)OCC)ccc34)c(OCC)ccc2c1`, the EC50 is more than 200 µM and the IC50 was more than 200 µM.

As for `O=C(O)c1cc(C(=O)Nc2ccc(C3=NCCN3)cc2)c(C(=O)O)cc1C(=O)Nc1ccc(C2=NCCN2)cc1`, the EC50 was more than 200 µM and the IC50 was more than 200 µM.

With `O=c1c2nn3c(=O)n(-c4ccc(Cl)cc4)c(=O)c3nn2c(=O)n1-c1ccc(Cl)cc1`, the EC50 is more than 200 µM and the IC50 is more than 200 µM.

Consider `O=c1cc(-c2ccccc2)[nH]c2nccn12`, for which the EC50 is more than 200 µM and the IC50 was more than 200 µM.

For the compound `Cc1cc(NC2=CC(=O)C(=O)c3ccccc32)no1`, the EC50 was more than 200 µM and the IC50 was found to be 5.89 µM.

As for `CN(C)CCN=C1Nc2ccccc2C(=O)N2CSCC12` (stereo not given), the EC50 was more than 200 µM and the IC50 was more than 200 µM.

Consider `CN(C)CCCNC(=O)c1cc(NC(=O)c2cc(NC(=O)c3cc(NC(=O)c4cccc(C(=O)Nc5cc(C(=O)Nc6cc(C(=O)Nc7cc(C(=O)NCCCN(C)C)n(C)c7)n(C)c6)n(C)c5)c4)cn3C)cn2C)cn1C`, for which the EC50 is more than 100 µM and the IC50 is more than 100 µM.

Consider `Clc1ccc(C2ON=C(c3ccccc3)N2C23CC4CC(CC(C4)C2)C3)cc1` (stereo not given), for which the EC50 is more than 200 µM and the IC50 was more than 200 µM.

Turning to `CCCO/S(=N\S(=O)(=O)c1ccccc1)c1ccccc1[N+](=O)[O-]` (stereo not given), the EC50 was more than 676 µM and the IC50 was more than 676 µM.

Take `O=C(CC1C(=O)Nc2ccccc2S1=O)Nc1ccc(Cl)cc1` (stereo not given): the result was inactive.

Regarding `O=[n+]1c2c(n([O-])c3ccc4ccccc4c31)-c1cccc3cccc-2c13`, the EC50 is more than 100 µM and the IC50 is more than 100 µM.

On to `O=C(CC1C(=O)c2ccccc2C1=C1C(=O)c2ccccc2C1=O)c1ccccc1` (stereo not given), for which the EC50 is more than 9.55 µM and the IC50 stood at 5.5 µM.

With `c1c[nH]c(C23C4C5C6C4C2C6C53)n1` (stereo not given), the EC50 was more than 200 µM and the IC50 is more than 200 µM.

Consider `O=C(O)CN(c1ccc(Cl)cc1)S(=O)(=O)c1ccccc1`, for which the result was inactive.

On to `CC1C(NNc2ccccc2)Oc2cc3c(cc2C1c1ccccc1O)OCO3` (stereo not given), for which the result was inactive.

`O=C(OCCO)c1c(Cl)c(Cl)c(Cl)c(Cl)c1-c1c2cc(Br)c(=O)c(Br)c-2oc2c(Br)c(O)c(Br)cc12`: the EC50 is more than 61.7 µM and the IC50 came out at 20.9 µM.

Consider `COC(=O)c1nc(N)nc(C(=O)OC)c1C(=O)/C=C/c1ccccc1`, for which the EC50 is more than 741 µM and the IC50 is 324 µM.

In the case of `NC(=O)c1ccc(N=Nc2c(O)c3ccccc3[nH]c2=O)cc1`, the EC50 was more than 200 µM and the IC50 was more than 200 µM.

`CN(C)c1ccc(/C=C2\C(=O)Nc3ccccc32)cc1`: the EC50 was more than 10.2 µM and the IC50 was more than 10.2 µM.
